# Assay results reported in US20140051744A1, “Markers For Assessing the Susceptibility of Cancer to Survivin-Targeting miRNA Treatment” (The Regents of the University of Colorado, A Body Corporate, priority 2012, published 2014).
# Tests used:
# [1] = test system: miR-203 and miR-542-3p expression levels; assay: qRT-PCR (TaqMan miRNA assays) of miRNA levels after mimic transfection; format: cell-based, human; details: SKBR3.B3.1 and SKBR3.B3.2 cells, 24 hrs, normalized to RNU6B, vs control mimic
# Text: (§1) FIGS. 1A-B. Transfection of the mimics of miR-203 and/or miR-542-3p dramatically increases their expression levels and specifically down-regulates Survivin, but not other functionally related molecules, such as Mcl-1 and Bcl-xL. SKBR3.B3.1 and […] cells were transfected with either control miRNA mimic, or miR-203 mimic, or miR-542-3p mimic alone, or the combination of miR-203 and miR-542-3p mimics for 24 hrs. (FIG. 1A) Cells were collected and subjected to total RNA extraction, inclusive of the small RNA fraction. The expression levels of miR-203 and miR-542-3p were measured by qRT-PCR using TaqMan miRNA assays. All results were normalized with the internal control RNU6B. Bars, SD. […] (FIG. 1B) Cells were collected and subjected to western blot analyses with specific antibodies directed against Survivin, Mcl-1, Bcl-xL, or β-actin. The densitometry analyses of Survivin signals were shown underneath, and the arbitrary numbers indicate the intensities of each cell line relative to controls, defined as 1.0.
# Analysis of miRNA expression. […] The expression levels of miR-203 and miR-542-3p were then measured by quantitative real-time (qRT)-PCR using TaqMan MicroRNA Assays (Assay ID: 000507 and 001284, respectively; Applied Biosystems). […] The relative miRNA levels were calculated using the comparative Ct method (AACt) as reported (Howe et al., 2011). […]
# HCC cells = details: expression of miR-203 in HCC cells lacking their expression; cited from earlier work
# Mcl-1 = assay: Western blot of Mcl-1 protein after miRNA mimic transfection; format: cell-based, human; details: SKBR3.B3.1 and SKBR3.B3.2 cells, mimic transfection 24 hrs
# Text: as §1, with “The densitometry analyses of Survivin signals were shown underneath, and the arbitrary numbers indicate the intensities of each cell line relative to controls, defined as 1.0.” left out
# (§2) Western blot analysis. Protein expression levels were determined by western blot analysis as described previously (Wang et al., 2010; Huang et al., 2009; Huang et al., 2011). […] After the blots were incubated with horseradish peroxidase-labeled secondary antibody, the signals were detected using the enhanced chemiluminescence reagents (GE Healthcare Bio-Sciences Corp., Piscataway, N.J.).
# Survivin [2] = assay: Western blot of Survivin protein after miRNA mimic transfection in erbB2+ breast cancer cells; format: cell-based, human; details: mimic transfection 24 hrs
# Text: as §1
# MDA-MB-453 and BT474 cells (FIG. 2A), and BT474-HR20 cells (FIG. 2B) were transfected with either control miRNA mimic, or miR-203 mimic, or miR-542-3p mimic alone, or the combination of miR-203 and miR-542-3p mimics for 24 hrs. Cells were then collected and subjected to western blot analyses with specific antibodies directed against Survivin, Mcl-1, Bcl-xL, or β-actin. The densitometry analyses of Survivin signals were shown underneath, and the arbitrary numbers indicate the intensities of each cell line relative to controls, defined as 1.0.
# (§3) Transfection of cells with miRNA mimic. Cell transfection with the miRIDIAN miRNA mimics or negative controls was carried out using HiPerFect Transfection Reagent (QIAGEN) according to the manufacturer's protocol.
# (§4) Western blot analysis. Protein expression levels were determined by western blot analysis as described previously (Wang et al., 2010; Huang et al., 2009; Huang et al., 2011). Equal amounts of total cell lysates were boiled in Laemmli SDS-sample buffer, resolved by SDS-PAGE, transferred to nitrocellulose membrane (Bio-Rad Laboratories, Hercules, Calif.), and probed with the primary antibodies described in the figure legends. After the blots were incubated with horseradish peroxidase-labeled secondary antibody, the signals were detected using the enhanced chemiluminescence reagents (GE Healthcare Bio-Sciences Corp., Piscataway, N.J.).
# [3] = test system: PARP cleavage and caspase-3 activation; assay: Western blot of PARP cleavage and cleaved caspase-3 after mimic transfection plus paclitaxel; format: cell-based, human; details: SKBR3.B3.1 and SKBR3.B3.2 cells, mimic 24 hrs then paclitaxel 24 hrs; for paclitaxel-induced PARP cleavage and caspase-3 activation (cleaved caspase-3): vs paclitaxel alone in control mimic transfection
# Text: (FIGS. 3A-B) SKBR3.B3.1 and SKBR3.B3.2 cells were transfected with either control miRNA mimic, or miR-203 mimic, or miR-542-3p mimic alone, or the combination of miR-203 and miR-542-3p mimics for 24 hrs. Cells were then untreated or treated with paclitaxel for another 24 hrs. Cells were collected and subjected to western blot analyses of PARP, cleaved caspase-3 (C-Caps-3), β-actin (FIG. 3A), or a specific apoptotic ELISA (FIG. 3B). C & D, BT474-HR20 cells were transfected with either control miRNA mimic, or miR-203 mimic, or miR-542-3p mimic alone, or the combination of miR-203 and miR-542-3p mimics for 24 hrs. Cells were then untreated or treated with paclitaxel for another 24 hrs. Cells were collected and subjected to western blot analyses of PARP, cleaved caspase-3 (C-Caps-3), or β-actin (FIG. 3C), or a specific apoptotic ELISA (FIG. 3D).
# as §3, §4
# Bcl-xL = assay: Western blot of Bcl-xL protein after miRNA mimic transfection; format: cell-based, human; details: SKBR3.B3.1 and SKBR3.B3.2 cells, mimic transfection 24 hrs
# Text: as §1, with “The densitometry analyses of Survivin signals were shown underneath, and the arbitrary numbers indicate the intensities of each cell line relative to controls, defined as 1.0.” left out
# as §2
# 18rRNA = details: overexpression of miR-542-3p; cited from earlier work
# Survivin [4] = details: cells transfected with miR-542-3p mimics vs negative control-transfected cells; cited from earlier work
# [5] = test system: cancer cell proliferation; details: ectopic expression; through G1 and G2/M cell cycle arrest; cited from earlier work
# [6] = test system: Src-transformed fibroblasts and human cancer cells; details: ectopic expression in Src-transformed fibroblasts and human cancer cells; cited from earlier work
# [7] = MDA-MB-453, BT474 and BT474-HR20 cells
# [8] = SKBR3.B3.1 and SKBR3.B3.2 cells, vs control mimic
Substance,expression levels of miR-203 and/or miR-542-3p following mimic(s) transfection [1],cell growth (HCC cells),effect on MCl-1 protein (Mcl-1),protein levels of Survivin (Survivin [2]; [7]),protein levels of Survivin (Survivin [2]; [8]),paclitaxel-induced PARP cleavage and caspase-3 activation (cleaved caspase-3) [3],effect on BCl-xL protein (Bcl-xL),18rRNA levels (18rRNA),gene down-regulation in microarray analysis (Survivin [4]),cancer cell proliferation [5],inhibition on Survivin compared with the other single mimic (Survivin [2]; SKBR3.B3.1 and SKBR3.B3.2 cells),tumor growth [6],enhancement of paclitaxel-induced PARP cleavage and caspase-3 activation compared with the other single mimic [3]
"miR-203: miRIDIAN miRNA specific mimic of miR-203 (sequence GUGAAAUGUUUAGGACCACUAG, MIMAT0000264), purchased from Thermo Scientific Dharmacon (commercial miRIDIAN mimic, chemistry not given here)",dramatically increased,inhibited cell growth,no effect,able to down-regulate Survivin,clearly reduced the protein levels of Survivin,clearly enhanced paclitaxel-induced PARP cleavage,no effect,–,–,–,–,–,–
"miR-542-3p: miRIDIAN miRNA specific mimic of miR-542-3p (sequence UGUGACAGAUUGAUAACUGAAA, MIMAT0003389), purchased from Thermo Scientific Dharmacon (commercial miRIDIAN mimic, chemistry not given here)",dramatically increased,–,no effect,able to down-regulate Survivin,clearly reduced the protein levels of Survivin,clearly enhanced paclitaxel-induced PARP cleavage,no effect,significantly decreased,most down-regulated candidate gene was Survivin,inhibited cancer cell proliferation,more profound inhibition on Survivin than miR-203,suppresses tumor growth,more profound effects than miR-203
